In patent publication US10828317B2, “Method of treating bacterial infections” (priority 2016, dated 2020):
Like-named read-outs stand apart in the source and are kept apart here.

Experiments:
P. aeruginosa EN014 = assay: MIC, WT; type: cell-based, Pseudomonas aeruginosa; details: Pseudomonas aeruginosa, read-out: MIC
K. pneumoniae EN0145 = assay: MIC, KPC-2; type: cell-based; details: Klebsiella pneumoniae, read-out: MIC
E. coli B EN0458 = assay: MIC; type: cell-based, Escherichia coli B; details: Escherichia coli, read-out: MIC
K. pneumoniae EN0244 = assay: MIC, colistinR; type: cell-based; details: Klebsiella pneumoniae, EN0244, combination didanosine+trimethoprim+uridine, Table 20; read-out: MIC
K. pneumoniae EN0245 = assay: MIC, colistinR; type: cell-based; details: Klebsiella pneumoniae, EN0245, combination didanosine+trimethoprim+uridine, Table 20; read-out: MIC
K. pneumoniae EN0249 = assay: MIC, colistinR; type: cell-based; details: Klebsiella pneumoniae, EN0249, combination didanosine+trimethoprim+uridine, Table 20; read-out: MIC
P. aeruginosa EN004 = assay: MIC, WT (EN004 = EN0004); type: cell-based, Pseudomonas aeruginosa
E. coli EN0137 = assay: MIC, ESBL (CTX-M-15); type: cell-based; details: Escherichia coli, EN0137, combination didanosine+trimethoprim+uridine, Table 20; read-out: MIC
E. coli EN002 = assay: MIC, DtoIC; type: cell-based, Escherichia coli; details: Escherichia coli, read-out: MIC
P. aeruginosa EN0422 = assay: MIC; type: cell-based, Pseudomonas aeruginosa; details: Pseudomonas aeruginosa, read-out: MIC
E. coli EN0136 = assay: MIC, ESBL (CTX-M-2); type: cell-based; details: Escherichia coli, read-out: MIC
K. pneumoniae EN006 = assay: MIC, WT (EN006 = EN0006, ATCC 13883); type: cell-based, Klebsiella pneumoniae; details: Klebsiella pneumoniae, read-out: MIC
P. aeruginosa EN0460 = assay: MIC; type: cell-based, Pseudomonas aeruginosa; details: Pseudomonas aeruginosa, read-out: MIC
E. coli EN001 = assay: MIC, WT (EN001 = EN0001, ATCC 25922); type: cell-based, Escherichia coli
E. coli EN012 = assay: MIC, WT; type: cell-based, Escherichia coli; details: Escherichia coli, read-out: MIC
[1] = system: A. pittii or A. nosocomialis EN0180; assay: MIC; type: cell-based, Acinetobacter pittii or nosocomialis; details: read-out: MIC
[2] = combination AZT+trimethoprim+uridine, Table 17B

## O=c1ccn([C@@H]2O[C@H](CO)[C@@H](O)[C@H]2O)c(=O)[nH]1 [Uridine, uridine]
P. aeruginosa EN014; EN014, Combination 2 AZT+trimethoprim+uridine+thymidine, Table 16
  MIC: > 400 µg/mL
P. aeruginosa EN014; EN014, combination AZT+trimethoprim+uridine, Table 6
  MIC: > 1000 µg/mL
P. aeruginosa EN014; EN014, combination FdUrd+trimethoprim+uridine, Table 8
  MIC: > 400 µg/mL
P. aeruginosa EN014; EN014, combination didanosine+trimethoprim+uridine, Table 10
  MIC: > 400 µg/mL
K. pneumoniae EN0145; EN0145, combination FdUrd+trimethoprim+uridine, Table 19
  MIC: > 400 µg/mL
K. pneumoniae EN0145; EN0145, combination didanosine+trimethoprim+uridine, Table 20
  MIC: > 400 µg/mL
E. coli B EN0458; BEN0458, combination FdUrd+trimethoprim+uridine, Table 8
  MIC: 3 µg/mL
E. coli B EN0458; BEN0458, combination didanosine+trimethoprim+uridine, Table 10
  MIC: 3 µg/mL
K. pneumoniae EN0244
  MIC: > 400 µg/mL
K. pneumoniae EN0245
  MIC: > 400 µg/mL
K. pneumoniae EN0249
  MIC: > 400 µg/mL
P. aeruginosa EN004; Pseudomonas aeruginosa, EN004, Combination 1 AZT+trimethoprim+uridine, Table 16, read-out: MIC
  MIC: > 400 µg/mL
P. aeruginosa EN004; Pseudomonas aeruginosa, EN004, Combination 2 AZT+trimethoprim+uridine+thymidine, Table 16, read-out: MIC
  MIC: > 400 µg/mL
P. aeruginosa EN004; Pseudomonas aeruginosa, EN004, combination AZT+trimethoprim+uridine, Table 6, read-out: MIC
  MIC: > 1000 µg/mL
P. aeruginosa EN004; Pseudomonas aeruginosa, EN004, combination FdUrd+trimethoprim+uridine, Table 8, read-out: MIC
  MIC: > 400 µg/mL
P. aeruginosa EN004; Pseudomonas aeruginosa, EN004, combination didanosine+trimethoprim+uridine, Table 10, read-out: MIC
  MIC: > 400 µg/mL
P. aeruginosa EN004; [2]
  MIC: >400 µg/mL
P. aeruginosa EN004; combination FdUrd+trimethoprim+uridine, Table 19
  MIC: >400 µg/mL
P. aeruginosa EN004; combination didanosine+trimethoprim+uridine, Table 20
  MIC: >400 µg/mL
E. coli EN0137
  MIC: > 400 µg/mL
E. coli EN002; EN002, Combination 2 AZT+trimethoprim+uridine+thymidine, Table 16
  MIC: 12.5 µg/mL
E. coli EN002; EN002, combination AZT+trimethoprim+uridine, Table 6
  MIC: 4 µg/mL
E. coli EN002; EN002, combination FdUrd+trimethoprim+uridine, Table 8
  MIC: 6 µg/mL
E. coli EN002; EN002, combination didanosine+trimethoprim+uridine, Table 10
  MIC: 6 µg/mL
P. aeruginosa EN0422; EN0422, Combination 1 AZT+trimethoprim+uridine, Table 16
  MIC: > 400 µg/mL
P. aeruginosa EN0422; EN0422, Combination 2 AZT+trimethoprim+uridine+thymidine, Table 16
  MIC: > 400 µg/mL
P. aeruginosa EN0422; EN0422, combination AZT+trimethoprim+uridine, Table 6
  MIC: > 1000 µg/mL
P. aeruginosa EN0422; EN0422, combination FdUrd+trimethoprim+uridine, Table 8
  MIC: > 400 µg/mL
P. aeruginosa EN0422; EN0422, combination didanosine+trimethoprim+uridine, Table 10
  MIC: > 400 µg/mL
E. coli EN0136; EN0136, combination AZT+trimethoprim+uridine, Table 17B
  MIC: 13 µg/mL
E. coli EN0136; EN0136, combination didanosine+trimethoprim+uridine, Table 20
  MIC: > 400 µg/mL
K. pneumoniae EN006; EN006, Combination 1 AZT+trimethoprim+uridine, Table 16
  MIC: 12.5 µg/mL
K. pneumoniae EN006; EN006, combination AZT+trimethoprim+uridine, Table 6
  MIC: 16 µg/mL
P. aeruginosa EN0460; EN0460, Combination 1 AZT+trimethoprim+uridine, Table 16
  MIC: > 400 µg/mL
P. aeruginosa EN0460; EN0460, Combination 2 AZT+trimethoprim+uridine+thymidine, Table 16
  MIC: > 400 µg/mL
P. aeruginosa EN0460; EN0460, combination AZT+trimethoprim+uridine, Table 6
  MIC: > 1000 µg/mL
P. aeruginosa EN0460; EN0460, combination FdUrd+trimethoprim+uridine, Table 8
  MIC: > 400 µg/mL
P. aeruginosa EN0460; EN0460, combination didanosine+trimethoprim+uridine, Table 10
  MIC: > 400 µg/mL
E. coli EN001; Escherichia coli, EN001, Combination 1 AZT+trimethoprim+uridine, Table 16, read-out: MIC
  MIC: 6.4 µg/mL
E. coli EN001; Escherichia coli, EN001, combination AZT+trimethoprim+uridine, Table 6, read-out: MIC
  MIC: 16 µg/mL
E. coli EN001; Escherichia coli, EN001, combination FdUrd+trimethoprim+uridine, Table 8, read-out: MIC
  MIC: 13 µg/mL
E. coli EN001; Escherichia coli, EN001, combination didanosine+trimethoprim+uridine, Table 10, read-out: MIC
  MIC: 13 µg/mL
E. coli EN001; [2]
  MIC: 13 µg/mL
E. coli EN012; EN012, combination FdUrd+trimethoprim+uridine, Table 8
  MIC: 3 µg/mL
E. coli EN012; EN012, combination didanosine+trimethoprim+uridine, Table 10
  MIC: 6 µg/mL
[1]; Combination 1 AZT+trimethoprim+uridine, Table 16
  MIC: > 400 µg/mL
[1]; Combination 2 AZT+trimethoprim+uridine+thymidine, Table 16
  MIC: > 400 µg/mL
[1]; combination AZT+trimethoprim+uridine, Table 6
  MIC: > 1000 µg/mL
[1]; combination FdUrd+trimethoprim+uridine, Table 8
  MIC: 400 µg/mL
[1]; combination didanosine+trimethoprim+uridine, Table 10
  MIC: > 400 µg/mL
